According to publication PMC4868058, “A critical role for the Drosophila dopamine D1-like receptor Dop1R2 at the onset of metamorphosis” (BMC Developmental Biology, 2016):
Counter-ions that a name gives are not always drawn.

Key:
Dop1R2 [1] = biological target: T1, Dop1R2 (Drosophila melanogaster, UniProt Q24563); assay: CRE-luciferase reporter assay in transfected HEK293 cells; format: cell-based
T1 construct: receptor cDNA in pcDNA1.1, transiently expressed in HEK293 with CRE-luciferase reporter
T1 sequence (Q24563 1-539): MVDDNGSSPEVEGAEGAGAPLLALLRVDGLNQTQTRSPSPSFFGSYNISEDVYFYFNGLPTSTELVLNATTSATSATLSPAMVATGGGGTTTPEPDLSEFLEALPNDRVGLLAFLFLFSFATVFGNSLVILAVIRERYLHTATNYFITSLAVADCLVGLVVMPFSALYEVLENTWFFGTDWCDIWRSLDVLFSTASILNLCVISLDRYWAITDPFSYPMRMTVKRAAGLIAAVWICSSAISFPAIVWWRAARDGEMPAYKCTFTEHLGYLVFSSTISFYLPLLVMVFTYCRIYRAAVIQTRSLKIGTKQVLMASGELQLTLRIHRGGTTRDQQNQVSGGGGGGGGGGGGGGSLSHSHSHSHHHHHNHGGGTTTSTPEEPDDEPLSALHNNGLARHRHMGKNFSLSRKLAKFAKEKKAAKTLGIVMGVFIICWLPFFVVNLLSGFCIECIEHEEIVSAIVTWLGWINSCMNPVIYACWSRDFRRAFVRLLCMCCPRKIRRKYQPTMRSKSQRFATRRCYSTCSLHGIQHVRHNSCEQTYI

Dop1R2 [2] = biological target: T1, Dop1R2; assay: as above; format: cell-based; remark: listed apart in the source

Row | Compound | EC50 (Dop1R2 [1]) [nM] | IC50 (Dop1R2 [2]) [nM]
1 | NCCc1ccc(O)c(O)c1 [dopamine hydrochloride] | 270 | 
2 | OCCN1CCN(CCC=C2c3ccccc3Sc3ccc(C(F)(F)F)cc32)CC1 [flupenthixol dihydrochloride] |  | 260
